According to patent publication US20250129070A1, “BIFUNCTIONAL ANDROGEN RECEPTOR COMPOUNDS” (priority 2023, published 2025):

What was measured:
VCaP cells = test: VCaP growth inhibition assay; type: cell-based; details: 30 pM R1881, 9 days, CTG
Protocol: VCaP cells (ATCC Cat #CRL-2876) are plated at 1×10^4 cells per well of a white plastic 96-well cluster plate (Thermo Scientific Nunc Cat #165306) in 100 uL phenol red-free DMEM (Gibco Cat #21063-029) media with 5% CSS (Omega Scientific Cat #FB-04). Cluster plates are returned to the incubator (37*C/5% CO2) for 72 hours prior to treatment. Just prior to treatment, 100 μL of phenol red-free DMEM/5% CSS and […] R1881 (Sigma Cat #R0908-10 mg) was added to each well of the cluster plates (Final R1881 concentration=30 pM). Compounds (200×) were added to each well in a volume of 1 uL, with serial dilutions (1:5) from 20 uM to 2 pM (final concentrations in well are 100 nM to 10 fM). Cluster plates are returned to the incubator for 9 days.
After the 9-day treatment period, media was removed from the cluster plates by inversion and 100 uL room temperature CTG reagent (Promega Cat #G7573) is added to each well. The cluster plates are placed on a shaker and incubated at room temperature for 20 minutes. Following this shaking/incubation, cluster plates are read on a luminometer (BMG ClarioStar). IC50 values are obtained by graphing the RLU data vs. compound concentration with nonlinear regression 4-parameter logistic curves (GraphPad Prism).

AR / CBP ternary complex = test: Ternary complex formation assay (sandwich ELISA, AR capture / CBP detection) in VCaP cell lysates; type: cell-based; details: 1.5 hours treatment, sandwich ELISA (AR capture, CBP or p300 detection)
Method in brief: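 VCaP cells (50K/well, 5% charcoal-stripped FBS, ≥3 days) treated with bifunctional compound for 1.5 h, then lysed 30 min at 4 °C. AR captured on anti-AR (AR 441) plates; bound CBP or p300 detected by rabbit mAb plus HRP secondary. QuantaRed chemifluorescence read at ex 570/em 585, immediately and at 5 and 15 min.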

Row | SMILES | IC50 (VCaP cells) [nM] | EC50 (AR / CBP ternary complex) [nM]
1 | COc1cc(OC2C(C)(C)C(NC(=O)c3ccc(N4CCC(C(=O)N5CCC(n6nc(N7CCCc8cc(-c9cnn(C)c9)c(C(F)F)cc87)c7c6CCN(C(C)=O)C7)CC5)CC4)cc3)C2(C)C)ccc1C#N (stereo not shown) [Compound 252, 4-[4-[4-[5-acetyl-3-[7-(difluoromethyl)-6-(1-methylpyrazol-4-yl)-3,4-dihydro-2H-quinolin-1-yl]-6,7-dihydro-4H-pyrazolo[4,3-c]pyridin-1-yl]piperidine-1-carbonyl]-1-piperidyl]-N-[3-(4-cyano-3-methoxy-phenoxy)-2,2,4,4-tetramethyl-cyclobutyl]benzamide] | 0.1 to 1 | < 1
2 | CC(=O)N1CCc2c(c(N3CCCc4cc(C#N)ccc43)nn2C2CCN(CC3CCN(c4ncc(C(=O)NC5C(C)(C)C(Oc6ccc(C#N)c(Cl)c6)C5(C)C)cn4)CC3)CC2)C1 (stereo not shown) [Compound 155, 2-[4-[[4-[5-acetyl-3-(6-cyano-3,4-dihydro-2H-quinolin-1-yl)-6,7-dihydro-4H-pyrazolo[4,3-c]pyridin-1-yl]-1-piperidyl]methyl]-1-piperidyl]-N-[3-(3-chloro-4-cyano-phenoxy)-2,2,4,4-tetramethyl-cyclobutyl]pyrimidine-5-carboxamide] | 0.1 to 1 | < 1
3 | COc1cc(OC2C(C)(C)C(NC(=O)c3ccc(N4CCC(CCc5ccc(-c6cc7cccc(-c8nn(C9CCOCC9)c9c8CN(C(C)=O)CC9)c7cn6)cc5)CC4)cc3)C2(C)C)ccc1C#N (stereo not shown) [Compound 254, 4-[4-[2-[4-[8-(5-acetyl-1-tetrahydropyran-4-yl-6,7-dihydro-4H-pyrazolo[4,3-c]pyridin-3-yl)-3-isoquinolyl]phenyl]ethyl]-1-piperidyl]-N-[3-(4-cyano-3-methoxy-phenoxy)-2,2,4,4-tetramethyl-cyclobutyl]benzamide] | 0.1 to 1 | < 1
4 | CC(=O)N1CCc2c(c(N3CCCc4cc(-c5cnn(C)c5)c(C(F)F)cc43)nn2CCN2CCN(c3ncc(C(=O)NC4C(C)(C)C(Oc5ccc(C#N)c(Cl)c5)C4(C)C)cn3)CC2)C1 (stereo not shown) [Compound 52, 2-[4-[2-[5-acetyl-3-[7-(difluoromethyl)-6-(1-methylpyrazol-4-yl)-3,4-dihydro-2H-quinolin-1-yl]-6,7-dihydro-4H-pyrazolo[4,3-c]pyridin-1-yl]ethyl]piperazin-1-yl]-N-[3-(3-chloro-4-cyano-phenoxy)-2,2,4,4-tetramethyl-cyclobutyl]pyrimidine-5-carboxamide] | 0.1 to 1 | –
5 | CC(=O)N1CCc2c(c(Nc3ccc(-c4cnn(C)c4)cc3F)nn2C2CN(CCN3CCN(c4ncc(C(=O)NC5C(C)(C)C(Oc6ccc(C#N)c(Cl)c6)C5(C)C)cn4)CC3)C2)C1 (stereo not shown) [Compound 164, 2-[4-[2-[3-[5-acetyl-3-[2-fluoro-4-(1-methylpyrazol-4-yl)anilino]-6,7-dihydro-4H-pyrazolo[4,3-c]pyridin-1-yl]azetidin-1-yl]ethyl]piperazin-1-yl]-N-[3-(3-chloro-4-cyano-phenoxy)-2,2,4,4-tetramethyl-cyclobutyl]pyrimidine-5-carboxamide] | ≤ 0.1 | –
6 | CC(=O)N1CCc2c(c(N3CCCc4cc(-c5cnn(C)c5)c(C(F)F)cc43)nn2C2CCC3(CC2)CCN(c2ccc4c(n2)CN(C2C(C)(C)C(Oc5ccc(C#N)c(Cl)c5)C2(C)C)C4=O)CC3)C1 (stereo not shown) [Compound 298, 4-[3-[2-[9-[5-acetyl-3-[7-(difluoromethyl)-6-(1-methylpyrazol-4-yl)-3,4-dihydro-2H-quinolin-1-yl]-6,7-dihydro-4H-pyrazolo[4,3-c]pyridin-1-yl]-3-azaspiro [5.5]undecan-3-yl]-5-oxo-7H-pyrrolo[3,4-b]pyridin-6-yl]-2,2,4,4-tetramethyl-cyclobutoxy]-2-chloro-benzonitrile] | > 100 | –
7 | CC(=O)N1CCc2c(c(Nc3ccc(-c4cnn(C)c4)cc3F)nn2CCOC2CCN(c3ncc(C(=O)NC4C(C)(C)C(Oc5ccc(C#N)c(Cl)c5)C4(C)C)cn3)CC2)C1 (stereo not shown) [Compound 2, 2-[4-[2-[5-acetyl-3-[2-fluoro-4-(1-methylpyrazol-4-yl)anilino]-6,7-dihydro-4H-pyrazolo[4,3-c]pyridin-1-yl]ethoxy]-1-piperidyl]-N-[3-(3-chloro-4-cyano-phenoxy)-2,2,4,4-tetramethyl-cyclobutyl]pyrimidine-5-carboxamide] | 1 to 100 | –
8 | CC(=O)N1CCc2c(c(N3CCCc4cc(-c5cnn(C)c5)c(C(F)F)cc43)nn2C2CCN(C3CCN(c4ccc5c(n4)CN(C4C(C)(C)C(Oc6ccc(C#N)c(Cl)c6)C4(C)C)C5=O)CC3)CC2)C1 (stereo not shown) [Compound 297, 4-[3-[2-[4-[4-[5-acetyl-3-[7-(difluoromethyl)-6-(1-methylpyrazol-4-yl)-3,4-dihydro-2H-quinolin-1-yl]-6,7-dihydro-4H-pyrazolo[4,3-c]pyridin-1-yl]-1-piperidyl]-1-piperidyl]-5-oxo-7H-pyrrolo[3,4-b]pyridin-6-yl]-2,2,4,4-tetramethyl-cyclobutoxy]-2-chloro-benzonitrile] | 1 to 100 | –

Next, values leading:

Row | IC50 (VCaP cells) [nM] | EC50 (AR / CBP ternary complex) [nM] | SMILES
9 | ≤ 0.1 | < 1 | COc1cc(OC2C(C)(C)C(NC(=O)c3ccc(N4CCN(CC5CCC(n6nc(N7CCCc8cc(-c9cnn(C)c9)c(C(F)F)cc87)c7c6CCN(C(C)=O)C7)CC5)CC4)cc3)C2(C)C)ccc1C#N (stereo not shown) [Compound 319, 4-[4-[[4-[5-acetyl-3-[7-(difluoromethyl)-6-(1-methylpyrazol-4-yl)-3,4-dihydro-2H-quinolin-1-yl]-6,7-dihydro-4H-pyrazolo[4,3-c]pyridin-1-yl]cyclohexyl]methyl]piperazin-1-yl]-N-[3-(4-cyano-3-methoxy-phenoxy)-2,2,4,4-tetramethyl-cyclobutyl]benzamide]
10 | 0.1 to 1 | < 1 | CC(=O)N1CCc2c(c(N3CCCc4cc(-c5cnn(C)c5)c(C(F)F)cc43)nn2C2CCN(C3CCC(C#Cc4ncc(C(=O)NC5C(C)(C)C(Oc6ccc(C#N)c(Cl)c6)C5(C)C)cn4)CC3)CC2)C1 (stereo not shown) [Compound 293, 2-[2-[4-[4-[5-acetyl-3-[7-(difluoromethyl)-6-(1-methylpyrazol-4-yl)-3,4-dihydro-2H-quinolin-1-yl]-6,7-dihydro-4H-pyrazolo[4,3-c]pyridin-1-yl]-1-piperidyl]cyclohexyl]ethynyl]-N-[3-(3-chloro-4-cyano-phenoxy)-2,2,4,4-tetramethyl-cyclobutyl]pyrimidine-5-carboxamide]
11 | 0.1 to 1 | – | COc1cc(OC2C(C)(C)C(NC(=O)c3ccc(N4CCC(N5CCC(n6cc(-c7cc8cccc(-c9nn(C%10CCOCC%10)c%10c9CN(C(C)=O)CC%10)c8cn7)cn6)CC5)CC4)cc3)C2(C)C)ccc1C#N (stereo not shown) [Compound 270, 4-[4-[4-[4-[8-(5-acetyl-1-tetrahydropyran-4-yl-6,7-dihydro-4H-pyrazolo[4,3-c]pyridin-3-yl)-3-isoquinolyl]pyrazol-1-yl]-1-piperidyl]-1-piperidyl]-N-[3-(4-cyano-3-methoxy-phenoxy)-2,2,4,4-tetramethylcyclobutyl]benzamide]
12 | 1 to 100 | – | COc1cc(OC2C(C)(C)C(NC(=O)c3ccc(N4CCC5(CC4)CC(Oc4ccc(-c6cc7c(cc6C(F)F)N(c6nn(C8CCOCC8)c8c6CN(C(C)=O)CC8)CCC7)cn4)C5)cc3)C2(C)C)ccc1C#N (stereo not shown) [Compound 306, 4-[2-[[5-[1-(5-acetyl-1-tetrahydropyran-4-yl-6,7-dihydro-4H-pyrazolo[4,3-c]pyridin-3-yl)-7-(difluoromethyl)-3,4-dihydro-2H-quinolin-6-yl]-2-pyridyl]oxy]-7-azaspiro[3.5]nonan-7-yl]-N-[3-(4-cyano-3-methoxy-phenoxy)-2,2,4,4-tetramethyl-cyclobutyl]benzamide]
13 | ≤ 0.1 | – | COc1cc(OC2C(C)(C)C(NC(=O)c3ccc(N4CC(N5CCC6(CCC(n7nc(N8CCCc9cc(-c%10cnn(C)c%10)c(C(F)F)cc98)c8c7CCN(C(C)=O)C8)CC6)CC5)C4)cc3)C2(C)C)ccc1C#N (stereo not shown) [Compound 301, 4-[3-[9-[5-acetyl-3-[7-(difluoromethyl)-6-(1-methylpyrazol-4-yl)-3,4-dihydro-2H-quinolin-1-yl]-6,7-dihydro-4H-pyrazolo[4,3-c]pyridin-1-yl]-3-azaspiro[5.5]undecan-3-yl]azetidin-1-yl]-N-[3-(4-cyano-3-methoxy-phenoxy)-2,2,4,4-tetramethyl-cyclobutyl]benzamide]
14 | ≤ 0.1 | – | COc1cc(OC2C(C)(C)C(NC(=O)c3ccc(N4CCC(N5CCC6(CCC(n7nc(N8CCCc9cc(-c%10cnn(C)c%10)c(C(F)F)cc98)c8c7CCN(C(C)=O)C8)CC6)CC5)CC4)cc3)C2(C)C)ccc1C#N (stereo not shown) [Compound 300, 4-[4-[9-[5-acetyl-3-[7-(difluoromethyl)-6-(1-methylpyrazol-4-yl)-3,4-dihydro-2H-quinolin-1-yl]-6,7-dihydro-4H-pyrazolo[4,3-c]pyridin-1-yl]-3-azaspiro[5.5]undecan-3-yl]-1-piperidyl]-N-[3-(4-cyano-3-methoxy-phenoxy)-2,2,4,4-tetramethyl-cyclobutyl]benzamide]
